Measured values as given in the Deep4Chem optical property database.
Values joined by “and” are separate entries in the source; they are usually repeats but may differ in a detail not shown here. Equal values may be shown once. One block for each compound: values may come before it.

Assay: solvent given as SMILES

SMILES: c1cc2ccc1-c1ccc(cc1)-c1ccc(s1)-c1ccc(cc1)-c1ccc(cc1)-c1ccc(s1)-c1ccc(cc1)-c1ccc(cc1)-c1ccc(s1)-c1ccc(cc1)-c1ccc(cc1)-c1ccc-2s1
emission maximum (in C1CCOC1): 472 nm

SMILES: CC(C)(C)c1ccc2c(c1)c1cc(C(C)(C)C)ccc1n2-c1ccc(C#Cc2ccc3c4ccc(C#Cc5ccc(C=C(C#N)C#N)cc5)cc4n(-c4ccc(C(F)(F)F)cc4)c3c2)cc1
emission maximum (in ClCCl): 454 nm

SMILES: CCOC(=O)c1cc(C(=O)OCC)c2ccc(O)cc2n1
emission maximum (in CCO): 474 nm

SMILES: CCCC1(CCC)c2cc(-c3ccc(-c4ccccc4)cc3)ccc2-c2ccc(-c3ccc4c(c3)C(CCC)(CCC)c3cc(-c5ccc(-c6ccccc6)cc5)ccc3-4)cc21
emission maximum (in Cc1ccccc1): 402 nm

SMILES: FC(F)(F)c1ccc(-c2ncc3ccccn23)cc1
emission maximum (in ClC(Cl)Cl): 459 nm

SMILES: N#Cc1c(-n2nnc3c2CCC2C(CC3)[C@@H]2CO)n([C@H]2C[C@H](O)[C@@H](CO)O2)c2ncnc(N)c12 (stereo partly drawn)
emission maximum (in CO): 380 nm

SMILES: CC1=CC(C)=[N+]2C1=C(c1ccccc1)c1c(C)cc(/C=C/c3ccc(N(C)C)cc3)n1[B-]2(F)F
emission maximum (in CCOCC): 638 nm

SMILES: COc1ccc(/C=N/c2cc(C(C)C)c(O)cc2C)cc1
emission maximum (in C1CCCCC1): 404 nm
emission maximum (in C1CCOC1): 408 nm
emission maximum (in C1COCCO1): 407 nm
emission maximum (in CC#N): 411 nm
emission maximum (in CC(C)(C)O): 411 nm
emission maximum (in CC(C)O): 413 nm
emission maximum (in CCCCCC): 401 nm
emission maximum (in CCCCO): 414 nm
emission maximum (in CCO): 414 nm
emission maximum (in CCOC(C)=O): 407 nm
emission maximum (in CN(C)C=O): 413 nm
emission maximum (in CO): 417 nm
emission maximum (in CS(C)=O): 417 nm
emission maximum (in ClC(Cl)Cl): 413 nm
emission maximum (in ClCCl): 413 nm
emission maximum (in O): 440 nm
emission maximum (in OCCO): 426 nm

SMILES: Cc1ccc(N(c2ccc(C)cc2)c2ccc3c4cccc5c(N(c6ccc(C)cc6)c6ccc(C)cc6)ccc(c6cccc2c63)c54)cc1
emission maximum (in C1CCCCC1): 546 nm
emission maximum (in C1CCOC1): 551 nm
emission maximum (in CC#N): 574 nm
emission maximum (in Cc1ccccc1): 548 nm
emission maximum (in ClCCl): 568 nm

SMILES: Fc1cccc(F)c1[B-]1(c2c(F)cccc2F)Oc2c(ccc3c4c(ccc23)C=[N+](c2ccccc2)[B-](c2c(F)cccc2F)(c2c(F)cccc2F)O4)C=[N+]1c1ccccc1
emission maximum (in Cc1ccccc1): 592 nm
emission maximum (in ClCCl): 585 nm

SMILES: Cc1ccc(-c2cc(-c3ccccc3)c3c(N)nc(N4CCCC4)c(C#N)c3n2)cc1
emission maximum (in CC#N): 528 nm
emission maximum (in CC(C)=O): 524 nm
emission maximum (in CC(C)O): 518 nm
emission maximum (in CO): 527 nm
emission maximum (in ClC(Cl)Cl): 510 nm
emission maximum (in ClCCl): 517 nm
emission maximum (in c1ccccc1): 504 nm

SMILES: CCCC1=Cc2nc1ccc1[nH]c(cc1CCC)c1nc(c(NC(=O)CCCC(=O)OC)cc3[nH]c2cc3CCC)C(CCC)=C1
emission maximum (in Cc1ccccc1): 680 nm

SMILES: Nc1ccc(C#Cc2ccc3ccc4ccc(C#Cc5ccc(NS(=O)(=O)c6ccc([N+](=O)[O-])cc6[N+](=O)[O-])cc5)c5ccc2c3c45)cc1
emission maximum (in CO): 552 nm

SMILES: c1ccc(-c2nc(-c3ccccc3)nc(-c3ccc(-n4c5ccccc5c5ccc6c7ccccc7n(-c7ccccc7)c6c54)cc3)n2)cc1
emission maximum (in Cc1ccccc1): 459 nm
emission maximum (in O=P(c1ccccc1)(c1ccccc1)c1ccc2oc3ccc(P(=O)(c4ccccc4)c4ccccc4)cc3c2c1): 477 nm

SMILES: Cc1ccc(N(c2ccc(C)cc2)c2ccc3c(c2)c2cc(N(c4ccc(C)cc4)c4ccc(C)cc4)ccc2n3-c2ccc(-c3nc4cccc5c4n3-c3ccccc3C5(C)C)cc2)cc1
emission maximum (in Cc1ccccc1): 496 nm
emission maximum (in O=P(c1ccccc1)(c1ccccc1)c1ccccc1Oc1ccccc1P(=O)(c1ccccc1)c1ccccc1): 491 nm

SMILES: c1ccc(-c2nc(-c3ccccc3)nc(-c3cc(-n4c5ccccc5c5ncccc54)c(-n4c5ccccc5c5ncccc54)c(-n4c5ccccc5c5ncccc54)c3)n2)cc1
emission maximum (in Cc1ccccc1): 435.76 nm

SMILES: CC1=C(Cc2ccccc2)C(C)=[N+]2C1=C(C)c1c(C)c(-c3csc(N4CCOCC4)n3)c(C)n1[B-]2(F)F
emission maximum (in C1CCOC1): 620 nm
emission maximum (in C1COCCO1): 602 nm
emission maximum (in CC#N): 537 nm
emission maximum (in CC(C)O): 543 nm
emission maximum (in CCO): 538 nm
emission maximum (in CCOC(C)=O): 545 nm
emission maximum (in CN(C)C=O): 537 nm
emission maximum (in CO): 539 nm
emission maximum (in CS(C)=O): 548 nm
emission maximum (in Cc1ccccc1): 603 nm
emission maximum (in ClC(Cl)Cl): 607 nm
emission maximum (in ClCCl): 535 nm

SMILES: COc1ccc(/C=C(\C#N)c2nc(-c3ccc(Cl)cc3)cs2)cc1
emission maximum (in CC#N): 472 nm

SMILES: CCn1c2cc(OC)ccc2c2c3nsnc3c3c4ccc(OC)cc4n(CC)c3c21
emission maximum (in CN(C)C=O): 557 nm
emission maximum (in Cc1ccccc1): 517 nm
emission maximum (in ClCCl): 553 nm

SMILES: N#C/C(=C\c1ccc(-c2ccncc2)cc1)c1ccc(-c2ccncc2)cc1
emission maximum (in ClCCl): 460 nm

SMILES: CC(C)(C)c1ccc2c(c1)c1cc(C(C)(C)C)ccc1n2-c1ccc(C#Cc2cccc(C#Cc3ccc(-n4c5ccc(C(C)(C)C)cc5c5cc(C(C)(C)C)ccc54)cc3)c2)cc1
emission maximum (in CC#N): 435 nm
emission maximum (in CCCCC): 359 nm
emission maximum (in CO): 426 nm
emission maximum (in Cc1ccccc1): 379 nm
emission maximum (in ClC(Cl)Cl): 400 nm
emission maximum (in ClCCl): 416 nm

SMILES: Cc1ccc(-n2cccc2)cc1
emission maximum (in CC#N): 312 nm
emission maximum (in CCCCCC): 310 nm

SMILES: O=C(O)COc1cccc(OCC(=O)O)c1-c1c2ccc(=[N+]3CCCCC3)cc-2oc2cc(N3CCCCC3)ccc12
emission maximum (in CCO): 580 nm
emission maximum (in O): 594 nm

SMILES: CCCCN(CCCC)c1ccc2c(c1)C#CC#Cc1cc(C(F)(F)F)ccc1C#Cc1cc(c3cc1C#Cc1ccc(N(CCCC)CCCC)cc1C#CC#Cc1cc(C(F)(F)F)ccc1C#C3)C#C2
emission maximum (in ClCCl): 558 nm
emission maximum (in c1ccccc1): 522 nm

SMILES: CCCCN(CCCC)c1ccc(C#Cc2cc(C#Cc3ccc(N(CCCC)CCCC)cc3)c(C#Cc3ccc(C(F)(F)F)cc3)cc2C#Cc2ccc(C(F)(F)F)cc2)cc1
emission maximum (in ClCCl): 541 nm
emission maximum (in c1ccccc1): 493 nm

SMILES: CCCCCCc1ccc2c(/C=N/c3cc(/N=C/c4c(O)ccc5cc(CCCCCC)ccc45)cc(/N=C/c4c(O)ccc5cc(CCCCCC)ccc45)c3)c(O)ccc2c1
emission maximum (in C1CCOC1): 509 nm
emission maximum (in CC#N): 507 nm
emission maximum (in Cc1ccccc1): 507 nm
emission maximum (in ClCCl): 511 nm

SMILES: CC[N+]1(CC)CN2C(=N1)C(C(=O)O)=Cc1cc(SC)ccc12
emission maximum (in O): 515 nm

Continued, values first:

emission maximum (in CC#N): 340 nm
emission maximum (in CCCCCC): 332 nm
emission maximum (in CCO): 339 nm
SMILES: c1ccc2c(c1)[nH]c1ccccc12

emission maximum (in ClC(Cl)Cl): 568 nm
SMILES: F[B-]1(F)n2cccc2C(c2ccccc2)=C2C=CC(c3cccc(OC4=[N+]5C(=C(c6ccccc6)c6cc(Br)c(Br)n6[B-]5(F)F)C=C4Br)c3)=[N+]21

emission maximum (in ClCCl): 470 nm
SMILES: Fc1ccc(N(c2ccccc2)c2ccc3ccc4c(N(c5ccccc5)c5ccc(F)cc5)ccc5ccc2c3c54)cc1

emission maximum (in C1CCCCC1): 489 nm
emission maximum (in CC#N): 548 nm
emission maximum (in CCO): 583 nm
emission maximum (in c1ccccc1): 509 nm
SMILES: CNc1ccc2c(c1)-c1ccccc1C2=O

emission maximum (in C1CCOC1): 534 nm
emission maximum (in CC#N): 647 nm
emission maximum (in ClC(Cl)Cl): 573 nm
emission maximum (in ClCCl): 591 nm
SMILES: COc1ccc2cc(-c3ccc([N+](=O)[O-])cc3)ccc2c1

emission maximum (in C1CCCCC1): 462 nm
emission maximum (in CC1CCCCC1): 462 nm
emission maximum (in CC#N): 501 nm and 506.6 nm
emission maximum (in CCC(C)CC): 461.6 nm
emission maximum (in CCCCCC): 463 nm
emission maximum (in CCO): 505 nm
emission maximum (in CCOC(C)=O): 492.8 nm
SMILES: CCN(CC)c1ccc2cc(-c3nc4ccccc4s3)c(=O)oc2c1

emission maximum (in C1CCCCC1): 415 nm
SMILES: C#Cc1ccc(C#Cc2cnc(C#Cc3ccccc3)nc2)cc1

emission maximum (in ClC(Cl)Cl): 619 nm
SMILES: CN1C(=CC2=C([O-])C(=Cc3oc4ccccc4[n+]3C)C2=O)C(C)(C)c2ccccc21

emission maximum (in CC#N): 461 nm
SMILES: Cc1cc(C)c2nc3c(=O)[nH]c(=O)[nH]c3nc2c1

emission maximum (in ClCCl): 649 nm
SMILES: CC(C)[Si](C#Cc1c2cc3ccccc3cc2c(C#C[Si](C)(C)C)c2cc3ccccc3cc12)(C(C)C)C(C)C

emission maximum (in C1COCCO1): 709 nm
emission maximum (in CCO): 699 nm
emission maximum (in CN(C)C=O): 702 nm
emission maximum (in ClC(Cl)Cl): 709 nm
SMILES: CCCCCCCN1C(=CC2=C([O-])C(=CC3=[N+](CCCCCCC)c4ccccc4C3(C)C)C2=C(C#N)C#N)Sc2ccccc21

emission maximum (in CO): 659 nm
emission maximum (in CS(C)=O): 660 nm
emission maximum (in O): 652 nm
SMILES: CCCN1/C(=C/C=C/C=C/C2=[N+](CCC)c3ccccc3C2(C)C)C(C)(C)c2ccccc21

emission maximum (in ClC(Cl)Cl): 453 nm
SMILES: COc1ccc(-c2cc(-c3ccc(N(C)C)cc3)nc(-c3ccccc3)n2)cc1

emission maximum (in ClC(Cl)Cl): 633 nm
SMILES: CC1=C(/C=C/c2ccccc2)C(C)=[N+]2C1=C(c1ccccc1)c1c(C)c(/C=C/c3ccccc3)c(C)n1[B-]2(F)F

emission maximum (in C1CCCCC1): 348 nm
emission maximum (in CC#N): 450 nm
SMILES: Cc1ccc(/C=C/c2ccccc2-[n+]2noc([O-])c2C)cc1

emission maximum (in C1COCCO1): 546 nm
emission maximum (in CC#N): 550 nm
emission maximum (in CCO): 550 nm
emission maximum (in CCOC(C)=O): 544 nm
emission maximum (in O): 560 nm
SMILES: CN1C(=O)/C(=C/c2ccncc2)N=C1/C=C/c1ccccc1

emission maximum (in C1CCOC1): 433 nm
SMILES: CCCCCOc1cc2oc(=O)c3c4occc4c4ccc5cccc6c(c1)c2c3c4c56

emission maximum (in C1CCOC1): 443 nm
emission maximum (in CC#N): 457 nm
emission maximum (in CO): 461 nm
emission maximum (in ClCCl): 452 nm
SMILES: COc1cc(-c2nc3c4cccnc4c4ncccc4c3[nH]2)c(OC)cc1/C=C/c1nc2ccccc2[nH]1

emission maximum (in C1CCCCC1): 490 nm
emission maximum (in CC#N): 514 nm
emission maximum (in CCO): 552 nm
SMILES: COc1ccc2c(c1)-c1cc(OC)ccc1C2=O

emission maximum (in CO): 814 nm
SMILES: CC1(C)C(/C=C/C2=C(Cl)C(=C/C=C3/N(Cc4ccc(C(=O)O)cc4)c4ccccc4C3(C)C)/CCC2)=[N+](Cc2ccc(C(=O)O)cc2)c2ccccc21

emission maximum (in CO): 534 nm
SMILES: c1ccc(N(c2ccccc2)c2ccc(-c3ncc(-c4ccncc4)s3)cc2)cc1

emission maximum (in c1ccccc1): 500 nm
SMILES: CN(C)c1ccc2nc(-c3ccccc3)c(=O)oc2c1

emission maximum (in CO): 817 nm
SMILES: CC1(C)C(/C=C/C=C/C=C/C=C2/N(CCC(=O)O)c3ccc4ccccc4c3C2(C)C)=[N+](CCC(=O)O)c2ccc3ccccc3c21
